{
  "source": "patent US20240238398A1",
  "about": "“IMMUNOGENIC COMPOSITION” (GRIFFITH UNIVERSITY, priority 2021, published 2024)",
  "key": {"B. microti [1]": {"system": "B. microti", "experiment": "Assessment of chemically attenuated B. microti pRBCs in SCID mice", "format": "in vivo", "conditions": "10^6 B. microti pRBCs treated with 2 μM TF-A, intravenous, immunodeficient SCID mice", "protocol": "FIG. 5: Assessment of chemically attenuated B. microti pRBCs in BALB/c and SCID mice. Related to FIGS. 1 and 2. BALB/c and SCID mice (n=5/group) were injected intravenously with 10^6 B. microti parasitized red blood cells (pRBCs) that were chemically attenuated with 2 μM of Tafuramycin-A (TF-A). Control mice received pRBCs that were not treated with TF-A. A. Parasitemia was monitored by microscopy post challenge. B. Mice were assessed for signs of disease and were scored based on defined criteria listed on a clinical scoresheet. Data are expressed as mean±SEM.\nChemical attenuation of B. microti with Tafuramycin-A (TF-A) was conducted as described previously (Good et al., 2013). Blood from mice infected with B. microti (as a source of pRBCs) and from naïve mice (as a source of mRBCs) were collected into EDTA tubes. TF-A was diluted to a 20 μM final concentration in RPMI-1640 with glutamine and added to a 25 cm^2 vented tissue culture flask to give a final TF-A concentration of 2 μM, 200 nM or 20 nM as required. One hundred microlitres of blood containing B. microti pRBCs or mRBCs was added into each flask, as required. […] A cell count was performed using a haemocytometer, the immunizing dose calculated, and the blood was resuspended in the required volume of PBS for injection. […]"}, "B. microti [2]": {"system": "B. microti", "experiment": "In vivo assessment of chemically attenuated B. microti pRBCs in BALB/c mice", "conditions": "intravenous inoculation", "protocol": "FIG. 1: In vivo assessment of chemically attenuated B. microti pRBCs. A and B. To assess attenuation of B. microti parasitized red blood cells (pRBCs), BALB/c mice (n=5/group) were injected intravenously with 10^6 pRBCs treated with 2 μM, 200 nM or 20 nM of Tafuramycin-A (TF-A). Control mice received 10^6 untreated pRBCs. C and D. The impact of parasite dose on protection induced by a chemically attenuated whole parasite B. microti vaccine. BALB/c mice (n=5/group) were immunized intravenously on days 0, 14 and 28 with 10^4, 10^5 or 10^6 B. microti parasitized red blood cells (pRBCs) that were chemically attenuated with 2 μM of Tafuramycin-A (TF-A). Control mice received 10^6 TF-A treated normal mouse red blood cells (mRBCs). Mice were challenged with 10^6 B. microti pRBCs two weeks after the final immunization. (A and C: Parasitemias were monitored by microscopy post challenge. B and D: Mice were assessed for signs of disease and were scored based on defined criteria listed on a clinical scoresheet. Data are expressed as mean±SEM). […]\nChemical attenuation of B. microti with Tafuramycin-A (TF-A) was conducted as described previously (Good et al., 2013). […] A cell count was performed using a haemocytometer, the immunizing dose calculated, and the blood was resuspended in the required volume of PBS for injection. […]"}},
  "data": [
    {"smiles": "COc1cc2cc(C(=O)N3CC(CCl)c4c3cc(O)c3ccoc43)[nH]c2c(OC)c1OC", "note": "(stereo not shown) [TF-A, seco-iso-cyclopropylfurano[2,3-e]indoline-TMI]", "values": [
      {"measurement": "signs of clinical disease", "setting": "B. microti [1]", "result": "remained without signs of clinical disease"},
      {"measurement": "time microscopically clear of parasites", "setting": "B. microti [1]", "result": 70, "unit": "days"},
      {"measurement": "microscopically patent parasitemia and clinical signs of infection", "setting": "B. microti [2]; 10^6 B. microti pRBCs attenuated with 200 nM TF-A", "result": "did not develop microscopically patent parasitemia nor clinical signs of infection"},
      {"measurement": "microscopically patent parasitemia and clinical signs of infection", "setting": "B. microti [2]; 10^6 B. microti pRBCs attenuated with 2 μM TF-A", "result": "did not develop microscopically patent parasitemia nor clinical signs of infection"}
    ]}
  ]
}
